Test results published in patent US20060142251A1, “Anti-microbial agents derived from methionine sulfoximine analogues” (priority 2002, published 2006).
“And” between values parts separate entries of the source, which are not always exact repeats. Equal entries are not always repeated. Where two headings read alike, the source gives them in different places.

What was measured:
[1] = α-Et-MSO: convulsions in a minority of mice vs MSO dose giving 100% of mice; cited from earlier work
[2] = in vivo; cited from earlier work
[3] = system: M. tuberculosis Erdman in human macrophages (THP-1 cells); conditions: 20, 200, 2000 μM, CFU to day 5 (FIG. 5)
[4] = cited from earlier work; for metabolism: do not form the toxic products formed in vivo from MSO
M. tuberculosis Erdman = assay: M. tuberculosis growth in broth culture; type: cell-based; conditions: for inhibition of M. tuberculosis growth in broth culture in comparison with MSO / inhibition of M. tuberculosis in broth culture relative to MSO at each of the three concentrations: 10, 100, 1000 μM; for inhibition of M. tuberculosis growth in broth culture in comparison with MSO: 6 weeks (FIG. 4); for inhibition of M. tuberculosis in broth culture relative to MSO at each of the three concentrations / inhibition of M. tuberculosis growth in broth culture: Example 7; for inhibition of M. tuberculosis growth in broth culture: 10, 100 or 1000 μM, 6 weeks
[5] = From the text: Exemplary, non-limiting GS inhibitors of the present invention and their relevant properties are summarized below: [drawing 1]
[6] = doses that fully inhibit glutathione synthesis; cited from earlier work
[7] = system: M. tuberculosis Erdman strain; type: in vivo; conditions: for reduction of CFU in lung and spleen below the level obtained with MSO: from day 14
Remark: listed apart in the source

Row | SMILES | dose that causes convulsions in mice, higher than MSO [1] [fold] | entry into the brain compared with MSO [2] | inhibition of M. tuberculosis growth in human macrophages [3] | metabolism [4] | Metabolized In Vivo [4] | inhibition of M. tuberculosis growth in broth culture in comparison with MSO (M. tuberculosis Erdman) | inhibition of M. tuberculosis in broth culture relative to MSO at each of the three concentrations (M. tuberculosis Erdman) | inhibition of M. tuberculosis growth in broth culture (M. tuberculosis Erdman) | Estimated Dose of L Isomer that Induces Convulsions in Mice (Relative to MSO) ([5]; Table 1) | Estimated Dose of L Isomer that Induces Convulsions in Mice (Relative to MSO) ([5]; Table 3) | further results
1 | CCC(N)(CCS(C)(=N)=O)C(=O)O (racemic) [α-Et-MSO, α-ethyl-DL-methionine-SR-sulfoximine] | 16 | do not enter the brain as readily as MSO | readily inhibited M. tuberculosis growth in human macrophages | resistant to metabolism | − | as inhibitory to M. tuberculosis growth as MSO | as inhibitory or slightly more inhibitory than MSO | inhibited M. tuberculosis | >16 | ≧16 | 
2 | CC(N)(CCS(C)(=N)=O)C(=O)O (racemic) [α-Me-MSO, α-methyl-DL-methionine-SR-sulfoximine] | ~8 | do not enter the brain as readily as MSO | readily inhibited M. tuberculosis growth in human macrophages | resistant to metabolism | − | as inhibitory to M. tuberculosis growth as MSO | slightly less inhibitory than MSO | inhibited M. tuberculosis | 8 | 8 | 
3 | CCCCS(=N)(=O)CCC(N)C(=O)O [BSO, D, L-Buthionine-SR-Sulfoximine] |  |  |  |  |  |  |  | did not |  |  | animals killed [6]: 100%
4 | NNC(=O)c1ccncc1 [INH, isoniazid] |  |  |  |  |  |  |  |  |  |  | reduction of CFU in lung and spleen below the level obtained with MSO ([7]; INH 1 mg kg^−1 day^−1 oral): ~1.5 logs; reduction of CFU in lung and spleen below the level obtained with MSO ([7]; INH 4 mg kg^−1 day^−1 oral): ~2.5 logs; protection from weight loss ([7]; […], MSO 1.5, INH 1 or 4 mg kg^−1 day^−1): protected animals from weight loss
5 | CS(=N)(=O)CC[C@H](N)C(=O)O (stereo partly drawn) [MSO, L-methionine-SR-sulfoximine] |  |  |  |  |  |  |  | inhibited M. tuberculosis | 1 | 1 | fewer CFU of M. tuberculosis in lung and spleen than control animals ([7]; in vivo): approximately 1 log unit; protection from weight loss ([7]; in vivo): protected animals from weight loss; reduction of CFU of M. tuberculosis in lungs and spleen compared with control animals ([7]; in vivo): ~0.7 logs; reduction of bacterial counts in lung and spleen ([7]; in vivo): effective at reducing bacterial counts; survival of the 10 week observation period ([7]; in vivo): 100% and 80% and 60%; weight gain versus untreated controls ([7]; in vivo): gained significantly more weight than untreated controls; weight loss versus untreated controls ([7]; in vivo): protected from weight loss; reduction of CFU in lungs and spleen compared with untreated controls ([7]; in vivo, ip): 2.5 logs; MTD in the presence of ascorbate relative to absence of ascorbate (guinea pig, in vivo): 4 fold; maximum tolerated dose for guinea pigs infected with M. tuberculosis (guinea pig, in vivo): 1.5 mg kg^−1 day^−; tolerability (guinea pig, in vivo): well-tolerated
6 | O=C1O[C@H]([C@@H](O)CO)C(O)=C1O [ascorbate] |  |  |  |  |  |  |  |  |  |  | total dose well tolerated by guinea pigs (i.p., 9 mmoles kg^−1 day^−1 not well tolerated): 3 mmol/kg/day
